In patent US11066408B2, “Crystalline binary sodium salts of 5-methyl-(6S)-tetrahydrofolic acid with organic bases” (MERCK PATENT GMBH, priority 2017, dated 2021):

Experimental: The measurement of the kinetic solubility was conducted as described in the experimental part.
0.5 ml of purified/de-ionized water (for instance water for chromatography) is added.
2.535 ml of purified/de-ionized water (for instance water for chromatography) is added to the solid using an adjustable volumetric pipette. The mixture is vigorously agitated at room temperature and briefly sonicated.
Then 0.785 ml of purified/de-ionized water is added.
Then 1.0 ml of purified/de-ionized water is added.

## CN1c2c([nH]c(N)nc2=O)NC[C@@H]1CNc1ccc(C(=O)N[C@@H](CCC(=O)[O-])C(=O)[O-])cc1.[Ca+2] [calcium salt of 5-methyl-(6S)-tetrahydrofolic acid]
purified/de-ionized water, room temperature, agitated (briefly sonicated), not assay corrected
  kinetic solubility in water: smaller than 10 mg per 1 ml of water
Weighed solid plus water, agitated at room temperature
  time until a clear solution is obtained: No clear solution can be obtained
